From patent publication US20240293558A1, “KRAS INHIBITOR CONJUGATES” (Erasca, Inc., priority 2021, published 2024)
Like-named read-outs stand apart in the source and are kept apart here.

Key:
[1] = molecular target: T1, KRAS (WT) (Homo sapiens, UniProt P01116); test: In-vitro RAS-RAF binding assay (RRB), HTRF/FRET; format: biochemical; settings: read-out: Inhibition of RAS-RAF Binding (in-vitro) KRAS (WT) IC50
T1 construct: Biotinylated KRAS protein amino acids 1-169 (produced at Erasca); made in house
Protocol: (§1) Biotinylated KRAS protein amino acids 1-169 (produced at […]) is labeled with streptavidin-terbium (lanthanide cryptate donor fluorophore) in assay buffer (50 mM HEPES, pH 7.5, 100 mM NaCl, 1 mM MgCl2, 1 mM DTT) at a final concentration of 30 nM. In a separate reaction mixture, 30 nM cRAF (RBD) (Abcam, Cambridge MA) is labeled with anti-GST d2 (acceptor fluorophore). Labeling reactions are incubated for 1 hour at room temperature. […] Following the compound incubation, SOS1 catalytic domain (produced at […]) and GTPgS are added to the reaction to initiate nucleotide exchange (60 minutes exchange reaction). Once in the GTP state KRAS will bind to cRAF. No binding will occur if KRAS remains in the GDP state. Compounds may block nucleotide exchange or may create a steric obstruction to cRAF-KRAS interaction by binding to the RAS effector site. […] A portion of this mixture is transferred to a white 384-well plate (20 uL per well in duplicate) and read on an HTRF compatible plate reader (ClarioSTAR). Fluorescent resonance energy transfer (FRET) is measured at equilibrium. FRET signal will be high if KRAS-cRAF binding occurs. FRET signal will be low if KRAS-cRAF binding is inhibited by the test compound. Table 2 represents the average of multiple runs of each compound.

[2] = molecular target: KRAS G12D (Homo sapiens, UniProt P01116, G12D); test: In-vitro RAS-RAF binding assay (RRB), HTRF/FRET; format: biochemical; design: Biotinylated KRAS protein amino acids 1-169 (produced at Erasca); made in house; settings: read-out: Inhibition of RAS-RAF Binding (in-vitro) KRAS (G12D) IC50
Protocol: as §1

[3] = Table 2, average of multiple runs of each compound

T1 sequence (P01116 1-169 isoform P01116-2): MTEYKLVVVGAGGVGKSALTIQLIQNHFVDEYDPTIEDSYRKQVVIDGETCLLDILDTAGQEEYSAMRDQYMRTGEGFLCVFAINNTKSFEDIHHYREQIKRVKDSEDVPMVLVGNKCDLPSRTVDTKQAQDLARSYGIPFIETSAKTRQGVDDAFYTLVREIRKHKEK
Chain of KRAS G12D (P01116 1-169 isoform P01116-2 G12D): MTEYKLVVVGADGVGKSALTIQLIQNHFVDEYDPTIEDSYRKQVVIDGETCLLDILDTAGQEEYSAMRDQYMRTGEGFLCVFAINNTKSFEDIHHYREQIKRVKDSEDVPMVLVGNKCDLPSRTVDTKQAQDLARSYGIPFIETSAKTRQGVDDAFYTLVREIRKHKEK

Row | SMILES | IC50 ([1]; Table 1) | IC50 [1, 3] | IC50 ([2]; Table 1) | IC50 [2, 3]
1 | Cc1cc(N)nc(-c2c(Cl)cc3c(N4CC5CCC(C4)N5)nc(OC[C@@H]4CCCN4CCCOCCC(=O)N[C@H](C(=O)N4C[C@H](O)C[C@H]4C(=O)N[C@@H](C)c4ccc(-c5scnc5C)cc4)C(C)(C)C)nc3c2F)c1C(F)(F)F [Example 1, (2S,4R)-1-[(2S)-2-[3-[3-[(2S)-2-[[7-[6-amino-4-methyl-3-(trifluoromethyl)-2-pyridyl]-6-chloro-4-(3,8-diazabicyclo[3.2.1]octan-3-yl)-8-fluoro-quinazolin-2-yl]oxymethyl]pyrrolidin-1-yl]propoxy]propanoylamino]-3,3-dimethyl-butanoyl]-4-hydroxy-N-[(1S)-1-[4-(4-methylthiazol-5-yl)phenyl]ethyl]pyrrolidine-2-carboxamide] | 799 nM | 799 nM | 15 nM | 15.4 nM
2 | Cc1cc(N)nc(-c2c(Cl)cc3c(N4CC5CCC(C4)N5)nc(OC[C@@H]4CCCN4CCCOCCC(=O)N[C@H](C(=O)N4C[C@H](O)C[C@H]4C(=O)NCc4ccc(-c5scnc5C)cc4)C(C)(C)C)nc3c2F)c1C(F)(F)F [Example 2, (2S,4R)-1-[(2S)-2-[3-[3-[(2S)-2-[[7-[6-amino-4-methyl-3-(trifluoromethyl)-2-pyridyl]-6-chloro-4-(3,8-diazabicyclo[3.2.1]octan-3-yl)-8-fluoro-quinazolin-2-yl]oxymethyl]pyrrolidin-1-yl]propoxy]propanoylamino]-3,3-dimethyl-butanoyl]-4-hydroxy-N-[[4-(4-methylthiazol-5-yl)phenyl]methyl]pyrrolidine-2-carboxamide] | 4250 nM | 4250 nM | 17 nM | 17.2 nM
3 | Cc1cc(N)nc(-c2c(Cl)cc3c(N4CC5CCC(C4)N5)nc(OC[C@@H]4CCCN4CCCOCCCOc4cc(-c5scnc5C)ccc4CNC(=O)[C@@H]4C[C@@H](O)CN4C(=O)[C@H](NC(=O)C4(F)CC4)C(C)(C)C)nc3c2F)c1C(F)(F)F [Example 3, (2S,4R)—N-[[2-[3-[3-[(2S)-2-[[7-[6-amino-4-methyl-3-(trifluoromethyl)-2-pyridyl]-6-chloro-4-(3,8-diazabicyclo[3.2.1]octan-3-yl)-8-fluoro-quinazolin-2-yl]oxymethyl]pyrrolidin-1-yl]propoxy]propoxy]-4-(4-methylthiazol-5-yl)phenyl]methyl]-1-[(2R)-2-[(1-fluorocyclopropanecarbonyl)amino]-3,3-dimethyl-butanoyl]-4-hydroxy-pyrrolidine-2-carboxamide] | > 10000 nM | > 10000 nM | 64 nM | 64.3 nM
4 | Cc1cc(N)nc(-c2c(Cl)cc3c(N4CC5CCC(C4)N5)nc(OC[C@@H]4CCCN4CCCCCCCN4CCC(c5cc(F)cc6c5CN(C5CCC(=O)NC5=O)C6=O)CC4)nc3c2F)c1C(F)(F)F (stereo partly drawn) [Example 5, 3-[4-[1-[7-[(2S)-2-[[7-[6-amino-4-methyl-3-(trifluoromethyl)-2-pyridyl]-6-chloro-4-(3,8-diazabicyclo[3.2.1]octan-3-yl)-8-fluoro-quinazolin-2-yl]oxymethyl]pyrrolidin-1-yl]heptyl]-4-piperidyl]-6-fluoro-1-oxo-isoindolin-2-yl]piperidine-2,6-dione] | 2440 nM | 4920 nM | 19 nM | 18.8 nM
5 | C#Cc1c(F)ccc2cc(O)cc(-c3ncc4c(N5CC6CCC(C5)N6)nc(OC[C@@H]5CCCN5CCCC5CCC(=O)N5[C@H](C(=O)N5C[C@H](O)C[C@H]5C(=O)N[C@@H](C)c5ccc(-c6scnc6C)cc5)C(C)(C)C)nc4c3F)c12 (stereo partly drawn) [Example 10, (2S,4R)-1-((2S)-2-(2-(3-((2S)-2-(((4-(3,8-diazabicyclo[3.2.1]octan-3-yl)-7-(8-ethynyl-7-fluoro-3-hydroxynaphthalen-1-yl)-8-fluoropyrido[4,3-d]pyrimidin-2-yl)oxy)methyl)pyrrolidin-1-yl)propyl)-5-oxopyrrolidin-1-yl)-3,3-dimethylbutanoyl)-4-hydroxy-N—((S)-1-(4-(4-methylthiazol-5-yl)phenyl)ethyl)pyrrolidine-2-carboxamide] |  | 134 nM |  | 12.7 nM
6 | C[C@H](NC(=O)[C@@H]1C[C@@H](O)CN1C(=O)[C@@H](NC(=O)CCOCCCN1CCC[C@H]1COc1nc(N2CC3CCC(C2)N3)c2cc(C(F)(F)F)c(-c3ccc(F)c4sc(N)c(C#N)c34)cc2n1)C(C)(C)C)c1ccc(-c2c(F)cccc2F)cc1 [Example 21, (2S,4R)-1-((2S)-2-(3-(3-((2S)-2-(((7-(2-amino-3-cyano-7-fluorobenzo [b]thiophen-4-yl)-4-(3,8-diazabicyclo[3.2.1]octan-3-yl)-6-(trifluoromethyl)quinazolin-2-yl)oxy)methyl)pyrrolidin-1-yl)propoxy)propanamido)-3,3-dimethylbutanoyl)-N—((S)-1-(2′,6′-difluoro-[1,1′-biphenyl]-4-yl)ethyl)-4-hydroxypyrrolidine-2-carboxamide] |  | 162 nM |  | 14.4 nM
7 | Cc1ncsc1-c1ccc([C@H](C)NC(=O)[C@@H]2C[C@@H](O)CN2C(=O)[C@@H](NC(=O)CCCCN2CC[C@H]2COc2nc(N3CC4CCC(C3)N4)c3cc(Cl)c(-c4ccc(F)c5sc(N)c(C#N)c45)c(F)c3n2)C(C)(C)C)cc1 [Example 23, (2S,4R)-1-((2S)-2-(5-((2S)-2-(((7-(2-amino-3-cyano-7-fluorobenzo[b]thiophen-4-yl)-4-(3,8-diazabicyclo[3.2.1]octan-3-yl)-6-chloro-8-fluoroquinazolin-2-yl)oxy)methyl)azetidin-1-yl)pentanamido)-3,3-dimethylbutanoyl)-4-hydroxy-N—((S)-1-(4-(4-methylthiazol-5-yl)phenyl)ethyl)pyrrolidine-2-carboxamide] |  | 65 nM |  | 12.6 nM
8 | C[C@H](NC(=O)[C@@H]1C[C@@H](O)CN1C(=O)[C@@H](NC(=O)CCOCCCN1CCC[C@H]1COc1nc(N2CC3CCC(C2)N3)c2cc(Cl)c(-c3ccc(F)c4sc(N)c(C#N)c34)c(F)c2n1)C(C)(C)C)c1ccc(-c2ccccc2Cl)cc1 [Example 25, (2S,4R)-1-((2S)-2-(3-(3-((2S)-2-(((7-(2-amino-3-cyano-7-fluorobenzo[b]thiophen-4-yl)-4-(3,8-diazabicyclo[3.2.1]octan-3-yl)-6-chloro-8-fluoroquinazolin-2-yl)oxy)methyl)pyrrolidin-1-yl)propoxy)propanamido)-3,3-dimethylbutanoyl)-N—((S)-1-(2′-chloro-[1,1′-biphenyl]-4-yl)ethyl)-4-hydroxypyrrolidine-2-carboxamide] |  | 107 nM |  | 12 nM
9 | Cc1ccccc1-c1ccc([C@H](C)NC(=O)[C@@H]2C[C@@H](O)CN2C(=O)[C@@H](NC(=O)CCOCCCN2CCC[C@H]2COc2nc(N3CC4CCC(C3)N4)c3cc(Cl)c(-c4ccc(F)c5sc(N)c(C#N)c45)c(F)c3n2)C(C)(C)C)cc1 [Example 26, (2S,4R)-1-((2S)-2-(3-(3-((2S)-2-(((7-(2-amino-3-cyano-7-fluorobenzo[b]thiophen-4-yl)-4-(3,8-diazabicyclo[3.2.1]octan-3-yl)-6-chloro-8-fluoroquinazolin-2-yl)oxy)methyl)pyrrolidin-1-yl)propoxy)propanamido)-3,3-dimethylbutanoyl)-4-hydroxy-N—((S)-1-(2′-methyl-[1,1′-biphenyl]-4-yl)ethyl)pyrrolidine-2-carboxamide] |  | 91.8 nM |  | 12 nM
10 | C#Cc1c(F)ccc2cc(O)cc(-c3ncc4c(N5CC6CCC(C5)N6)nc(OC[C@@H]5CCCN5CCCOCCC(=O)N[C@H](C(=O)N5C[C@H](O)C[C@H]5C(=O)N[C@@H](C)c5ccc(-c6c(F)cncc6F)cc5)C(C)(C)C)nc4c3F)c12 [Example 27, (2S,4R)-1-((2S)-2-(3-(3-((2S)-2-(((4-(3,8-diazabicyclo[3.2.1]octan-3-yl)-7-(8-ethynyl-7-fluoro-3-hydroxynaphthalen-1-yl)-8-fluoropyrido[4,3-d]pyrimidin-2-yl)oxy)methyl)pyrrolidin-1-yl)propoxy)propanamido)-3,3-dimethylbutanoyl)-N—((S)-1-(4-(3,5-difluoropyridin-4-yl)phenyl)ethyl)-4-hydroxypyrrolidine-2-carboxamide] |  | 37.9 nM |  | 10.8 nM
11 | C#Cc1c(F)ccc2cc(O)cc(-c3ncc4c(N5CC6CCC(C5)N6)nc(OC[C@@H]5CCCN5CCCOCCC(=O)N[C@H](C(=O)N5C[C@H](O)C[C@H]5C(=O)N[C@@H](C)c5ccc(-c6ccncc6C#N)cc5)C(C)(C)C)nc4c3F)c12 [Example 28, (2S,4R)-1-((2S)-2-(3-(3-((2S)-2-(((4-(3,8-diazabicyclo[3.2.1]octan-3-yl)-7-(8-ethynyl-7-fluoro-3-hydroxynaphthalen-1-yl)-8-fluoropyrido[4,3-d]pyrimidin-2-yl)oxy)methyl)pyrrolidin-1-yl)propoxy)propanamido)-3,3-dimethylbutanoyl)-N—((S)-1-(4-(3-cyanopyridin-4-yl)phenyl)ethyl)-4-hydroxypyrrolidine-2-carboxamide] |  | 24.2 nM |  | 7.93 nM
